This note sets out measurements from ChEMBL document CHEMBL3046364, “Influence of 1, 3, 5-Triazine Compounds on Ammonia Oxidizing Activity of Cell-Free Extracts from Nitrosomonas europaea” (J Pestic Sci, 2002).

Structures are written as SMILES.

The subject of the assay is Nitrosomonas europaea. Kind of assay: Inhibition of ammonia oxidation in cell suspensions of Nitrosomonas europaea ATCC 25978 assessed as oxygen consumption. As to conditions: read-out: pI50 (converted). It is filed as functional, organism-based.
As to `CCNc1nc(C)nc(C(Cl)(Cl)Cl)n1`, the IC50 was 2 µM. Regarding `Cc1nc(N)nc(C(Cl)(Cl)Cl)n1`, the IC50 is 4.9 µM.

Regarding `Nc1nc(C(Cl)(Cl)Cl)nc(C(Br)(Br)Br)n1`, the IC50 was 0.0759 µM. Take `CNc1nc(C)nc(C(Cl)(Cl)Cl)n1`: the IC50 was 3.55 µM.

Regarding `CCCCCCCCCCCCCCNc1nc(C)nc(C(Cl)(Cl)Cl)n1`, the IC50 was 21.9 µM.
